# In patent US20180044343A1, “BICYCLIC IMIDAZOLO DERIVATIVE” (Sumitomo Dainippon Pharma Co., Ltd., priority 2015, published 2018):
# Molecular target: PDE1B (Homo sapiens, UniProt Q01064)
# Test: In vitro HTRF PDE1 inhibition assay (PDE1B)
# Format: biochemical
# Settings: in vitro PDE1B HTRF Assay; read-out: IC50
# PDE1B, sequence (Q01064 whole entry): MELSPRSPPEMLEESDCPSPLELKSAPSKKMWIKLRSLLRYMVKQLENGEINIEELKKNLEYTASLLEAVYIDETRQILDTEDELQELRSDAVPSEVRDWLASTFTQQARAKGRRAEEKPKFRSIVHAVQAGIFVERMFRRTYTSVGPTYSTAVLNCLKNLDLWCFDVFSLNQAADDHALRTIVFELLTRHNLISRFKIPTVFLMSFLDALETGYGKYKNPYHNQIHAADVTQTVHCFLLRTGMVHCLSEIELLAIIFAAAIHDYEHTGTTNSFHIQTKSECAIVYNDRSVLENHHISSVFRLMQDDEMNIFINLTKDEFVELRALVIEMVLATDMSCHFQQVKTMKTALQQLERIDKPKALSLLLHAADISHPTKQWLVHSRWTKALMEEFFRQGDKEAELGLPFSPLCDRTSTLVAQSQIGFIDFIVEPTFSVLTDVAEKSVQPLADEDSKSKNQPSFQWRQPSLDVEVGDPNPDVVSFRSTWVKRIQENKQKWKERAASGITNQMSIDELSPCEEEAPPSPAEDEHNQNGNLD
row,SMILES,IC50
1,Cn1c(NCc2ccc(Cl)cc2)nn2c(C3CCOCC3)ncc2c1=O [Example 180],< 1 µM
2,Cn1c(NCCc2ccccn2)nn2c(C3CCOCC3)ncc2c1=O [Example 182],< 1 µM
3,CO[C@H]1CCN(c2nn3c(C4CCOCC4)ncc3c(=O)n2C)C1 [Example 187],< 1 µM
4,Cn1c(N2CC[C@H](Oc3ccc(F)cn3)C2)nn2c(C3CCOCC3)ncc2c1=O [Example 190],< 1 µM
5,COC1CCN(c2nn3c(C4CCOCC4)ncc3c(=O)n2C)CC1 [Example 191],< 1 µM
6,COCC1CCN(c2nn3c(C4CCOCC4)ncc3c(=O)n2C)CC1 [Example 192],< 1 µM
7,COCCC1CCN(c2nn3c(C4CCOCC4)ncc3c(=O)n2C)CC1 [Example 193],< 1 µM
8,CC(=O)N1CCN(c2nn3c(C4CCOCC4)ncc3c(=O)n2C)CC1 [Example 195],< 1 µM
9,CN(C)C(=O)CN1CCCN(c2nn3c(C4CCOCC4)ncc3c(=O)n2C)CC1 [Example 197],< 1 µM
10,O=c1c2cnc(C3CCOCC3)n2nc(N2CCCC2)n1Cc1ccccc1 [Example 202],< 1 µM
11,Cn1c(NCc2ccc(Cl)cn2)nn2c(C3CCC3)ncc2c1=O [Example 205],< 1 µM
12,"O=c1c2cnc(C3CCOCC3)n2nc(N2CCCC2)n1CC1CC1 [Example 206, 3-(Cyclopropylmethyl)-2-(pyrrolidin-1-yl)-7-(tetrahydro-2H-pyran-4-yl)imidazo[5,1-f][1,2,4]triazin-4(3H)-one]",1 to 10 µM
13,CC(C)n1c(N2CCCC2)nn2c(C3CCOCC3)ncc2c1=O [Example 207],10 to 100 µM
14,CC(C)Cn1c(N2CCCC2)nn2c(C3CCOCC3)ncc2c1=O [Example 208],1 to 10 µM
15,O=c1c2cnc(C3CCOCC3)n2nc(N2CCCC2)n1CCC(F)(F)F [Example 209],10 to 100 µM
16,COCCn1c(N2CCCC2)nn2c(C3CCOCC3)ncc2c1=O [Example 210],10 to 100 µM
17,O=c1c2cnc(C3CCOCC3)n2nc(N2CCCC2)n1CC1CCC1 [Example 211],10 to 100 µM
18,O=c1c2cnc(C3CCOCC3)n2nc(N2CCCC2)n1CC1CCCCC1 [Example 213],1 to 10 µM
19,O=c1c2cnc(C3CCOCC3)n2nc(N2CCCC2)n1CC1CCOCC1 [Example 214],10 to 100 µM

# Next, values leading:
row,IC50,SMILES
1,< 1 µM,Cn1c(NCc2ccccn2)nn2c(C3CCOCC3)ncc2c1=O [Example 181]
2,< 1 µM,Cn1c(N2CCCC2)nn2c(C3CCOCC3)ncc2c1=O [Example 183]
3,< 1 µM,Cn1c(N2CCCCC2)nn2c(C3CCOCC3)ncc2c1=O [Example 184]
4,< 1 µM,Cn1c(N2CCOCC2)nn2c(C3CCOCC3)ncc2c1=O [Example 185]
5,< 1 µM,COCCN1CCN(c2nn3c(C4CCOCC4)ncc3c(=O)n2C)CC1 [Example 186]
6,< 1 µM,CO[C@@H]1CCN(c2nn3c(C4CCOCC4)ncc3c(=O)n2C)C1 [Example 188]
7,< 1 µM,Cn1c(N2CC[C@@H](Oc3ccc(F)cn3)C2)nn2c(C3CCOCC3)ncc2c1=O [Example 189]
8,1 to 10 µM,CN(C)C(=O)C1CCN(c2nn3c(C4CCOCC4)ncc3c(=O)n2C)CC1 [Example 194]
9,< 1 µM,COCCCN1CCN(c2nn3c(C4CCOCC4)ncc3c(=O)n2C)CC1 [Example 196]
10,< 1 µM,CCn1c(N2CCCC2)nn2c(C3CCOCC3)ncc2c1=O [Example 198]
11,< 1 µM,CCCn1c(N2CCCC2)nn2c(C3CCOCC3)ncc2c1=O [Example 199]
12,< 1 µM,O=c1c2cnc(C3CCOCC3)n2nc(N2CCCC2)n1Cc1ccc(Cl)cc1 [Example 203]
13,< 1 µM,Cc1ccc(CNc2nn3c(C4CCC4)ncc3c(=O)n2C)nc1 [Example 204]
14,10 to 100 µM,O=c1c2cnc(C3CCOCC3)n2nc(N2CCCC2)n1CC1CCCC1 [Example 212]
15,10 to 100 µM,O=c1c2cnc(C3CCOCC3)n2nc(N2CCCC2)n1CCC1CCOCC1 [Example 215]
